Tested on: serum uric acid level
Assay: Serum uric acid level-lowering action
Format: in vivo
Settings: male wister rats, oral 0.3 mg/5 mL/Kg in 0.5% MC, blood collected six hours after administration, vs MC group
Description: Serum Uric Acid Level-Lowering Action
To male wister rats of 7 weeks old (4 rats per group) was orally administered compulsorily a test substance suspended in 0.5% aqueous solution of methyl cellulose (MC) in such an amount as to provide 0.3 mg/5 mL/Kg by using a stomach sonde. Six hours after the administration of the test substance, a blood sample was collected from the orbital vein. After allowing to stand at room temperature for 1 hour, the blood sample was centrifuged at 2000×g for 10 minutes to collect serum. […] Lowering rate of serum uric acid level (%)=(1-average serum uric acid level of the group administered with test compound/average serum uric acid level of the group administered with MC)×100

## Cc1ccc(S(=O)(=O)O)cc1.N#Cc1cc(-c2nc(-c3ccncc3)n[nH]2)ccn1 [Example 2, 5-(2-cyano-4-pyridyl)-3-(4-pyridyl)-1,2,4-triazole p-toluenesulfonate]
  Lowering rate of serum uric acid level: 51.1%

From patent US20060189811A1, “Process for producing 1,2,4-triazole compound and intermediate therefor” (FUJIYAKUHIN CO., LTD., priority 2004, published 2006)
